In patent US3947411A, “Novel 1-aryl-2-arylalkyl-3-or-4-[4'-(substituted-alkyl)piperazino-1']butanols- 2-or-butenes-1, and methods of manufacture thereof” (Warner-Lambert Company, priority 1972, dated 1976):
≈ marks a conversion by molar mass, not a printed value.

How the values were obtained:
A. niger [1] = experiment: Minimum inhibitory concentration for fungi, tube dilution, A. niger (Table IV); conditions: Aspergillus niger, 48 h, read-out: Minimum Inhibitory Concentration, A. niger
Protocol: (§1) A tube dilution series of the respective compound in Sabouraud nutrient broth, whose individual tubes contained concentrations of 1024 μg, 512 μg, 256 μg, 128 μg, 64 μg, 32 μg, 16 μg, 8 μg, 4 μg, 2 μg, 1.1 μg and 0.5 μg/ml, was prepared and inoculated with a photometrically standardized suspension of the test organisms or the spores thereof.

Aspergillus niger = experiment: Agar well inhibition zone test against fungi, Aspergillus niger (Table II); conditions: quantity per well giving inhibition zone (500, 50, 5 μg tested); Sabouraud agar, 28°, 48 hours
Protocol: (§2) The efficacy of the compounds against fungi was tested as follows:
(§3) The test organisms, in this case the blastomycete Candida albicans and the mold Aspergillus niger, were inoculated onto Sabouraud agar plates by pouring a photometrically adjusted standard suspension of organisms on the plate. After inoculation, wells with a diameter of 5.0 mm were punched in the agar, and filled with 50 ul of the compound solution mentioned before. The quantity of compound applied thus amounted to 500 μg, 50 μg and 5 μg. After incubation at 28° for 48 hours, the quantity of compound was determined at which an inhibition of the organism's growth, in form of an inhibition zone around the corresponding well, was present.

Solubility in water = assay type: physicochemical; conditions: hydrochlorides or oxalates, read-out: solubilities (in water)
In short: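 Water solubility given for the hydrochloride salts of most compounds and for the oxalate salts of a few.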

A. niger [2] = experiment: Minimum inhibitory concentration for fungi in presence of serum, A. niger (Table VI); assay type: cell-based; conditions: Aspergillus niger; Sabouraud nutrient broth + 10% bovine serum, 28°C, 48 hours
C. albicans [3] = experiment: Minimum inhibitory concentration for fungi in presence of serum, C. albicans (Table VI); assay type: cell-based; conditions: Candida albicans; Sabouraud nutrient broth + 10% bovine serum, 28°C, 48 hours
Escherichia coli = experiment: Agar well inhibition zone test against bacteria, Escherichia coli (Table III); conditions: quantity per well giving inhibition zone (500, 50, 5 μg tested); nutrient agar, 37°, 24 hours
Protocol: (§4) The efficacy of the compounds against bacteria was tested as follows:
(§5) The test organisms, in this case Staphylococcus aureus and Escherichia coli, were inoculated on nutrient agar as described in Example 12, wells were punched, and the solutions of the compounds were transferred to fill the wells. The quantity of compound in the wells amounted again to 500 μg, 50 μg and 5 μg.
(§6) After incubation a 37° for 24 hours the quantity of compound was determined at which an inhibition of the organism's growth, in the form of an inhibition zone around the corresponding well, occurred.

C. albicans [4] = experiment: Minimum inhibitory concentration for fungi, tube dilution, C. albicans (Table IV); conditions: Candida albicans, 48 h, read-out: Minimum Inhibitory Concentration, C. albicans
Protocol: as §1

Staph. aureus = experiment: Minimum inhibitory concentration for bacteria, tube dilution, Staph. aureus (Table V); conditions: Staphylococcus aureus, 48 h, read-out: Minimum Inhibitory Concentration, Staph. aureus
Protocol: A tube dilution series of the respective compound in nutrient broth whose individual tubes contained concentrations of 1024 μg, 512 μg, 256 μg, 128 μg, 64 μg, 32 μg, 1 μg, 8 μg, 4 μg, 2 μg, 1.1 μg and 0.5 μg/ml was prepared and inoculated with a photometrically standardized suspension of the test organisms.

Staphylococcus aureus = experiment: Agar well inhibition zone test against bacteria, Staphylococcus aureus (Table III); conditions: quantity per well giving inhibition zone (500, 50, 5 μg tested); nutrient agar, 37°, 24 hours
Protocol: as §4, §5, §6

Candida albicans = experiment: Agar well inhibition zone test against fungi, Candida albicans (Table II); conditions: quantity per well giving inhibition zone (500, 50, 5 μg tested); Sabouraud agar, 28°, 48 hours
Protocol: as §2, §3

E. coli [5] = experiment: Minimum inhibitory concentration for bacteria, tube dilution, E. coli (Table V); assay type: cell-based; conditions: Escherichia coli, 48 h, read-out: Minimum Inhibitory Concentration, E. coli
E. coli [6] = experiment: Minimum inhibitory concentration for bacteria in presence of serum, E. coli (Table VII); assay type: cell-based; conditions: Escherichia coli; nutrient broth + 10% serum, 37°C, 48 hours
[7] = test system: Mycobacterium tuberculosis II 37 RV (typus humanus); experiment: Efficacy against Mycobacteria, Tb-broth dilution series (Table I); assay type: cell-based; conditions: 504 h, Dubos Tb-broth + 10% bovine serum, 21 days, read-out: Minimum Inhibitory Concentration

Row | SMILES | MIC (A. niger [1]) | Inhibition Area at μg, Asp. niger (Aspergillus niger) | solubility (Solubility in water) | MIC (A. niger [2]) | MIC (C. albicans [3]) | Inhibition Area at μg, E. coli (Escherichia coli) | MIC (C. albicans [4]) | MIC (Staph. aureus) | Inhibition Area at μg, Staph. aureus (Staphylococcus aureus) | Inhibition Area at μg, Cand. albicans (Candida albicans) | MIC (E. coli [5]) | MIC (E. coli [6]) | MIC [7]
1 | CCCCCCCCN1CCN(CCCCCCN2CCN(C(C)C(=Cc3ccccc3)Cc3ccccc3)CC2)CC1 (stereo not drawn) [LXII, 1-phenyl-2-benzyl-3-[4'-w-(4"-n-octyl-piperazino-1")-n-hexyl-piperazino-1']-butene-1] | < 0.5 µg/mL | 50 µg | 25 mg/mL (≈ 42600 µM) | 512 µg/mL | 1020 µg/mL | 50 µg | 2 µg/mL (≈ 3.41 µM) | 16 µg/mL (≈ 27.3 µM) | 5 µg | 5 µg | 1020 µg/mL (≈ 1740 µM) |  | 
2 | Clc1ccc(C=C(CCN2CCN(CCN3CCCCC3)CC2)Cc2ccc(Cl)cc2)cc1 [LXIII, 1-(p-chloro-phenyl)-2-(p-chlorobenzyl)-4-[4'-(β-piperidino-ethyl)-piperazino-1']-butene-1] | < 0.5 µg/mL | 50 µg | < 10 mg/mL | 32 µg/mL | 128 µg/mL | 5 µg | 32 µg/mL (≈ 65.8 µM) | 8 µg/mL (≈ 16.4 µM) | 5 µg | 5 µg | 64 µg/mL (≈ 132 µM) |  | 
3 | C(=C(CCN1CCN(CCN2CCCCC2)CC1)Cc1ccccc1)c1ccccc1 [LXIV] | 8 µg/mL (≈ 19.2 µM) | 5 µg | 100 mg/mL (≈ 239000 µM) | 8 µg/mL | 128 µg/mL | 5 µg | 8 µg/mL (≈ 19.2 µM) | 8 µg/mL (≈ 19.2 µM) | 5 µg | 50 µg | 256 µg/mL (≈ 613 µM) |  | 
4 | CC(C(=Cc1ccccc1Cl)Cc1ccccc1Cl)N1CCN(CCN2CCN(C)CC2)CC1 (stereo not drawn) [LXVI] | < 0.5 µg/mL | 5 µg | 100 mg/mL (≈ 199000 µM) | 128 µg/mL | 1020 µg/mL | 50 µg | 4 µg/mL (≈ 7.98 µM) | 32 µg/mL (≈ 63.8 µM) | 5 µg | 5 µg | 128 µg/mL (≈ 255 µM) |  | 
5 | CCCCCCCCNCCCCCCN1CCN(C(C)C(=Cc2ccccc2)Cc2ccccc2)CC1 (stereo not drawn) [XL, 1-phenyl-2-benzyl-3-[4'-(w-n-octyl-amino-n-hexyl)piperazino-1']-butene-1] | < 0.5 µg/mL | 5 µg | 10 mg/mL (≈ 19300 µM) | 2 µg/mL | 64 µg/mL | 5 µg | < 0.5 µg/mL | < 0.5 µg/mL | 5 µg | 5 µg | 32 µg/mL (≈ 61.8 µM) | 1020 µg/mL | 
6 | CNCCCCCCN1CCN(C(C)C(=Cc2ccccc2)Cc2ccccc2)CC1 (stereo not drawn) [XLI, 1-phenyl-2-benzyl-3-[4'-(w-methyl-amino-n-hexyl)piperazino-1']-butene-1] | 1 µg/mL (≈ 2.38 µM) | 5 µg | 100 mg/mL (≈ 238000 µM) | 8 µg/mL | 128 µg/mL | 50 µg | 2 µg/mL (≈ 4.77 µM) | 32 µg/mL (≈ 76.3 µM) | 50 µg | 5 µg | 32 µg/mL (≈ 76.3 µM) | 512 µg/mL | 
7 | CC(C(=Cc1ccc(Cl)cc1)Cc1ccc(Cl)cc1)N1CCN(CCN2CCN(C)CC2)CC1 (stereo not drawn) [XLII, 1-p-chloro-phenyl-2-p-chloro-benzyl-3-{4'-[β-(4"-methyl-piperazino-1")-ethyl]-piperazino-1'}-butene-1] | < 0.5 µg/mL | 5 µg | 100 mg/mL (≈ 199000 µM) | 32 µg/mL | 256 µg/mL | 5 µg | < 0.5 µg/mL | 32 µg/mL (≈ 63.8 µM) | 5 µg | 5 µg | 32 µg/mL (≈ 63.8 µM) | 1020 µg/mL | 
8 | CCCCCCCC[N+](C)(C)CCN1CCN(C(C)C(=Cc2ccccc2)Cc2ccccc2)CC1 (stereo not drawn) [XLIII, Dimethyl-n-octyl-β-[4-(1'-phenyl-2'-benzylbutene-1'-yl-3')-piperazino-1]-ethyl-ammoniumbromide] | < 0.5 µg/mL | 5 µg | < 10 mg/mL | 64 µg/mL | 128 µg/mL | 5 µg | < 0.5 µg/mL | < 0.5 µg/mL | 5 µg | 5 µg | 1 µg/mL | 128 µg/mL | 
9 | CC(N1CCN(CCO)CC1)C(O)(Cc1ccc(Cl)cc1)Cc1ccc(Cl)cc1 (stereo not drawn) [XLVII, 1-(p-Chloro-phenyl)-2-(p-chloro-benzyl)-3-[4'-(β-hydroxyethyl)-piperazino-1']-butanol-2] | 32 µg/mL (≈ 73.2 µM) | 5 µg | 100 mg/mL (≈ 229000 µM) | 64 µg/mL | 256 µg/mL | 500 µg | 32 µg/mL (≈ 73.2 µM) | 4 µg/mL (≈ 9.14 µM) | 5 µg | 5 µg |  | > 1020 µg/mL | 
10 | CC(N1CCN(C)CC1)C(O)(Cc1ccc(Cl)cc1)Cc1ccc(Cl)cc1 (stereo not drawn) [XLVIII, 1-p-chlorophenyl-2-p-chlorobenzyl-3-(4'-methyl-piperazino-1')-butanol-2] | 4 µg/mL (≈ 9.82 µM) | 50 µg | 50 mg/mL (≈ 123000 µM) | 256 µg/mL | > 1020 µg/mL | 50 µg | 8 µg/mL (≈ 19.6 µM) | 128 µg/mL (≈ 314 µM) | 50 µg | 50 µg | > 1020 µg/mL |  | 
11 | CC(N1CCN(CCN(C)Cc2ccccc2)CC1)C(O)(Cc1ccccc1)Cc1ccccc1 (stereo not drawn) [XV, 1-phenyl-2-benzyl-3-[4'-(β-N-methyl-N-benzylamino-ethyl)-piperazino-1']-butanol-2] | 128 µg/mL (≈ 271 µM) | 50 µg | 100 mg/mL (≈ 212000 µM) |  | 512 µg/mL | 50 µg | 16 µg/mL (≈ 33.9 µM) | > 1020 µg/mL | 50 µg | 50 µg | > 1020 µg/mL |  | 
12 | CNCCN1CCN(C(C)C(=Cc2ccccc2)Cc2ccccc2)CC1 (stereo not drawn) [XXV, 1-phenyl-2-benzyl-3-[4'-(β-methylamino-ethyl)-piperazino-1']-butene-1] | 8 µg/mL (≈ 22 µM) | 5 µg | 100 mg/mL (≈ 275000 µM) | 64 µg/mL | 256 µg/mL | 50 µg | 64 µg/mL (≈ 176 µM) | 64 µg/mL (≈ 176 µM) | 5 µg | 5 µg | 64 µg/mL (≈ 176 µM) | 512 µg/mL | 10 µg/mL
13 | CC(C(=Cc1ccccc1)Cc1ccccc1)N1CCN(CCN(C)C)CC1 (stereo not drawn) [XXVI, 1-phenyl-2-benzyl-3-[4'-(β-dimethylamino-ethyl)-piperazino-1']-butene-1] | 4 µg/mL (≈ 10.6 µM) | 5 µg | 100 mg/mL (≈ 265000 µM) | 32 µg/mL | 16 µg/mL | 50 µg | 8 µg/mL (≈ 21.2 µM) | 128 µg/mL (≈ 339 µM) | 50 µg | 5 µg | 128 µg/mL (≈ 339 µM) |  | 
14 | CC(C(=Cc1ccccc1)Cc1ccccc1)N1CCN(CCN2CCN(CCc3ccccc3)CC2)CC1 (stereo not drawn) [XXXIX, 1-phenyl-2-benzyl-3-{4'-[β-(4"-β-phenethylpiperazino-1")-ethyl]-piperazino-1'}-butene-1] | 32 µg/mL (≈ 61.2 µM) | 5 µg | 50 mg/mL (≈ 95600 µM) | 128 µg/mL | 64 µg/mL | 50 µg | 4 µg/mL (≈ 7.65 µM) | 32 µg/mL (≈ 61.2 µM) | 5 µg | 5 µg | > 1020 µg/mL |  | 
